The target in one assay is E. coli MTAN (Escherichia coli, UniProt P0AF12). Briefly: Inhibition of E. coli MTAN, xanthine oxidase-coupled enzyme assay. The conditions noted are these: Km of MTA over Ki of the inhibitor. In kind it is biochemical.
The target of a further assay is T1, human MTAP (Homo sapiens, UniProt Q13126).
T1 sequence (Q13126 1-283): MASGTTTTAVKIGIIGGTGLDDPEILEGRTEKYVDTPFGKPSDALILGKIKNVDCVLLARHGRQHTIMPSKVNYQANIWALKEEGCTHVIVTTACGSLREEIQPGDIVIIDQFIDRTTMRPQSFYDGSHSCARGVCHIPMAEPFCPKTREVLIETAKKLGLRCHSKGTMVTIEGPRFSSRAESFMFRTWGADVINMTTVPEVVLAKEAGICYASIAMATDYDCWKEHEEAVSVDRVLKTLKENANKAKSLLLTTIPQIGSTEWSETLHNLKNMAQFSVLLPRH
In kind it is biochemical. The conditions noted are these: for Km/Ki ratio for human MTAP: Km of MTA over Ki of the inhibitor.

Sequence of E. coli MTAN (P0AF12 whole entry): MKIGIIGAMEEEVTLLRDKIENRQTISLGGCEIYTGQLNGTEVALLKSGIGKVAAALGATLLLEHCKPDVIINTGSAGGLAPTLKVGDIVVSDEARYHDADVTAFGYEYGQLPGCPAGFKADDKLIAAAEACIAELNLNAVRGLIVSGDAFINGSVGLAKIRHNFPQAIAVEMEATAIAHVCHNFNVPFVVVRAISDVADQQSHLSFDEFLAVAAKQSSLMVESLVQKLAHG

Turning to `CC[C@H]1CN(Cc2c[nH]c3c(N)ncnc23)C[C@@H]1O` (racemic) [(±)-28, (±)-trans-1-[(9-Deaza-adenin-9-yl)methyl]-4-ethyl-3-hydroxypyrrolidine], the “Km/Ki ratio for E. coli MTAN” value at E. coli MTAN is on record as 512. For the same compound, the “Better competitor for the catalytic site of human MTAP than for E. coli MTAN, factor” value on human MTAP (from the Km/Ki ratios) turned out to be 6.

In the case of `C=C[C@H]1CN(Cc2c[nH]c3c(N)ncnc23)C[C@@H]1O` (racemic) [(±)-40, (±)-trans-1-[(9-Deaza-adenin-9-yl)methyl]-3-hydroxy-4-vinylpyrrolidine], the “Km/Ki ratio for E. coli MTAN” value on E. coli MTAN is recorded as 662. The “Km/Ki ratio for human MTAP” value on human MTAP is reported as 1649.

Turning to `C=CC[C@H]1CN(Cc2c[nH]c3c(N)ncnc23)C[C@@H]1O` (racemic) [(±)-41, (±)-trans-4-Allyl-1-[(9-deaza-adenin-9-yl)methyl]-3-hydroxypyrrolidine], the “Km/Ki ratio for E. coli MTAN” value at E. coli MTAN was 1228. The “Km/Ki ratio for human MTAP” value on human MTAP amounted to 1759.

As for `Nc1ncnc2c(CN3C[C@H](CCCSCc4ccccc4)[C@@H](O)C3)c[nH]c12` (racemic) [(±)-57, (±)-trans-4-[3-(Benzylthio)propyl]-1-[(9-deaza-adenin-9-yl)methyl]-3-hydroxypyrrolidine], on E. coli MTAN, the “Km/Ki ratio for E. coli MTAN” value was found to be 7963. Further, the “Km/Ki ratio for human MTAP” value on human MTAP is 74.
